Publication PMC11252418, “Specific glycine-dependent enzyme motion determines the potency of conformation selective inhibitors of threonyl-tRNA synthetase” (Communications Biology, 2024)
Several values for one entry are separate records, joined by “and”; a condition that tells them apart may be missing. Equal entries are not always repeated. Where two headings read alike, the source gives them in different places.

Columns and labels:
EcThrRS_G463A [1] = target: T1, EcThrRS_G463A (Escherichia coli, UniProt P0A8M3, G463A); experiment: ATP hydrolysis assay; format: biochemical; conditions: for ATP hydrolysis activity, inhibitory curve data point: BN, replicates, sheet Fig.7d
T1 construct: The E. coli ThrRS (residues 242-642, Supplementary Note 1) wild type; 6xHis (C); made in house; host or cells: E. coli BL21 (DE3)
T1 sequence (P0A8M3 242-642 G463A): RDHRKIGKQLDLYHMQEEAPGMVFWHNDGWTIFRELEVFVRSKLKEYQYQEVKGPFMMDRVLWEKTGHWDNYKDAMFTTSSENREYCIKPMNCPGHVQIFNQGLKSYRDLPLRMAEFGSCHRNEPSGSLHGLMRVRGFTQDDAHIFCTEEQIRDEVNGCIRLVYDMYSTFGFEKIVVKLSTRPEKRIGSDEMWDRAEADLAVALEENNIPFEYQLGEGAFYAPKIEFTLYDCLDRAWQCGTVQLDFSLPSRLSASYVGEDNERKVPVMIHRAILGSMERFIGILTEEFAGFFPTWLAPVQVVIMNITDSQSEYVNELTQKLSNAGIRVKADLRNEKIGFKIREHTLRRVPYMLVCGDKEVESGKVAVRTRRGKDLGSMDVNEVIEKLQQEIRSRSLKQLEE
Experimental: (§1) 200 nM EcThrRS wide type and mutants, ObaO and ObaO_S464G mutant were incubated with serially diluted OB (0 to 10 μM for EcThrRS, 0 to 40 μM for ObaO) in a buffer containing 25 mM HEPES pH 7.5, 50 mM NaCl, 40 mM MgCl2, 30 mM KCl, 0.01 mg/mL bovine serum albumin (BSA), and 0.004% Tween-20 at 37 °C for 4 h and then mixed 1:1 with a substrate mixture containing 4 μM ATP, 40 μM L-threonine, 25 mM HEPES pH 7.5, 50 mM NaCl, 40 mM MgCl2, 30 mM KCl, 0.01 mg/mL BSA, and 0.004% Tween-20. The ATP hydrolysis reaction was performed at 37 °C for 4 h.
(§2) After incubation, the detection solution from the Kinase-Glo® luminescent kit (Promega, USA) was added to the reaction system at a 1:1 ratio, and the mixture was gently shaken for 10 min. The chemiluminescence signal was measured using a microplate reader (Tecan, USA). All experiments were performed in four replicates. The data were processed using GraphPad Prism 8 software.

EcThrRS_WT = target: T2, EcThrRS_WT (Escherichia coli, UniProt P0A8M3); experiment: ATP hydrolysis assay; format: biochemical; conditions: for ATP hydrolysis activity, inhibitory curve data point: BN, replicates, sheet Fig.7d
T2 construct: The E. coli ThrRS (residues 242-642, Supplementary Note 1) wild type; 6xHis (C); made in house; host or cells: E. coli BL21 (DE3)
T2 sequence (P0A8M3 242-642): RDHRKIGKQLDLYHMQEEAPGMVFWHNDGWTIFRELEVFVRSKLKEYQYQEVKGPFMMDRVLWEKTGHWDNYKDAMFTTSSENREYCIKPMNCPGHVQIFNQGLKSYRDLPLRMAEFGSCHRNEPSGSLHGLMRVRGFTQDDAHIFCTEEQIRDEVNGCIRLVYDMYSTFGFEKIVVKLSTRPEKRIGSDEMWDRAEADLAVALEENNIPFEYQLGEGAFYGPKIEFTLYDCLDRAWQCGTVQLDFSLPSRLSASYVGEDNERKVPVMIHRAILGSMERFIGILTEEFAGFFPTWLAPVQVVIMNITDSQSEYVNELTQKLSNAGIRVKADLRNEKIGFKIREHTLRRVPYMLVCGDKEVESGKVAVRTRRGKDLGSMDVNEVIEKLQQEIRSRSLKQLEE
Experimental: as §1, §2

EcThrRS_G463S [2] = target: T3, EcThrRS_G463S (Escherichia coli, UniProt P0A8M3, G463S); experiment: ATP hydrolysis assay; format: biochemical
T3 construct: The E. coli ThrRS (residues 242-642, Supplementary Note 1) wild type; 6xHis (C); made in house; host or cells: E. coli BL21 (DE3)
T3 sequence (P0A8M3 242-642 G463S): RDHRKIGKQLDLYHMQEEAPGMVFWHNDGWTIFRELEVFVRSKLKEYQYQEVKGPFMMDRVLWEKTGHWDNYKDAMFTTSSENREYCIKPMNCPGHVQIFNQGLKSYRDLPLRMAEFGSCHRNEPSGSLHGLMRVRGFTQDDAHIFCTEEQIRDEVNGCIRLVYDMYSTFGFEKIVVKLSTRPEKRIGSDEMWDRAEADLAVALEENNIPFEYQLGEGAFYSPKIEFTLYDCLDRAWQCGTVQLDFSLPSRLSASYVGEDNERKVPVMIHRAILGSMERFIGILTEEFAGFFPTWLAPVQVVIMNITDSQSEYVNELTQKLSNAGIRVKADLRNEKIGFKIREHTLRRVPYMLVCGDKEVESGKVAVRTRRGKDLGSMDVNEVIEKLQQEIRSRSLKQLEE
Experimental: as §1, §2

EcThrRS_G463S [3] = target: T3, EcThrRS_G463S; experiment: ATP hydrolysis assay; format: biochemical; conditions: BN, replicates, sheet Fig.7d
EcThrRS_G463A [4] = target: T1, EcThrRS_G463A; experiment: Thermal shift assay (TSA); format: binding
Experimental: (§3) The EcThrRS_WT and L489M/G463S/G463S_Q484A/G463A/A316N mutant proteins, ObaO_WT and ObaO_S464G mutant proteins were prepared at 2 μM in buffer containing 25 mM Tris-HCl pH 7.5, 200 mM NaCl, and 20 μM OB (GlpBio, US) or BN (GlpBio, US) or ddH2O in equal volumes since the compounds were diluted with ddH2O to 1 mM as stocks. […] SYPRO orange dye (Sigma, USA) was diluted in assay buffer containing 25 mM Tris-HCl pH 7.5 and 200 mM NaCl to a 40× concentration, and was added to the mixture to a final 4× concentration. Aliquots (20 μL) were added to a 96-well PCR plate. After complete mixing, the final solutions were heated from 25 to 95 °C at a rate of 0.015 °C/s, and fluorescence signals were monitored by QuantStudio 3 (Applied Biosystems by Thermo Fisher Scientific, USA). The melting temperature (Tm) was calculated through a previously established method[56],[57].

EcThrRS_G463S [5] = target: T3, EcThrRS_G463S; experiment: Thermal shift assay (TSA); format: binding
Experimental: as §3

[6] = 2 μM protein, 20 μM compound, mean n = 4, read-out: ΔTm (increase of Tm)

C[C@@H]1C[C@H](C)C[C@H](C)[C@@H](O)CC(=O)O[C@H]([C@@H]2CCC[C@H]2C(=O)O)C/C=C/C=C(/C#N)[C@H](O)[C@@H](C)C1 [BN, borrelidin]
decrease of inhibitory effect vs EcThrRS_WT (EcThrRS_G463A [1]; 2 μM ATP and 20 μM L-Thr): more than 20 fold
ATP hydrolysis activity, inhibitory curve data point (EcThrRS_G463A [1]; Log10 Conc. 1.477, G463A): 95.000 and 86.999 and 114.196 and 92.149
ATP hydrolysis activity, inhibitory curve data point (EcThrRS_G463A [1]; Log10 Conc. 2.000, G463A): 87.423 and 89.051 and 94.722 and 94.776
ATP hydrolysis activity, inhibitory curve data point (EcThrRS_G463A [1]; Log10 Conc. 2.477, G463A): 87.400 and 82.253 and 93.320 and 93.112
ATP hydrolysis activity, inhibitory curve data point (EcThrRS_G463A [1]; Log10 Conc. 3.000, G463A): 81.982 and 81.596 and 85.557 and 86.320
ATP hydrolysis activity, inhibitory curve data point (EcThrRS_G463A [1]; Log10 Conc. 3.477, G463A): 63.653 and 64.234 and 69.634 and 68.650
ATP hydrolysis activity, inhibitory curve data point (EcThrRS_G463A [1]; Log10 Conc. 4.000, G463A): 68.712 and 73.186 and 66.040 and 70.648
ATP hydrolysis activity, inhibitory curve data point (EcThrRS_WT; Log10 Conc. 1.477, WT): 101.322 and 78.096 and 79.643 and 84.982
ATP hydrolysis activity, inhibitory curve data point (EcThrRS_WT; Log10 Conc. 2.000, WT): 101.576 and 82.194 and 100.286 and 100.117
ATP hydrolysis activity, inhibitory curve data point (EcThrRS_WT; Log10 Conc. 2.477, WT): 72.956 and 78.844 and 97.078 and 88.856
ATP hydrolysis activity, inhibitory curve data point (EcThrRS_WT; Log10 Conc. 3.000, WT): -7.239 and -12.609 and 12.089 and 13.133
ATP hydrolysis activity, inhibitory curve data point (EcThrRS_WT; Log10 Conc. 3.477, WT): -29.715 and 1.779 and -2.712 and 18.045
ATP hydrolysis activity, inhibitory curve data point (EcThrRS_WT; Log10 Conc. 4.000, WT): -14.823 and -17.346 and -12.025 and -9.555
IC50 (EcThrRS_WT; in the presence of 2 μM ATP and 20 μM L-Thr): 559 nM
decrease of inhibitory effect vs EcThrRS_WT (EcThrRS_G463S [2]; 2 μM ATP and 20 μM L-Thr): more than 20 fold
ATP hydrolysis activity, inhibitory curve data point (EcThrRS_G463S [2]; BN, Log10 Conc. 3.477, G463S, replicates, sheet Fig.7d): 72.021 and 67.252 and 61.642 and 63.732
ATP hydrolysis activity, inhibitory curve data point (EcThrRS_G463S [3]; Log10 Conc. 1.477, G463S): 98.112 and 97.245 and 94.519 and 96.966
ATP hydrolysis activity, inhibitory curve data point (EcThrRS_G463S [3]; Log10 Conc. 2.000, G463S): 96.048 and 91.632 and 90.284 and 92.020
ATP hydrolysis activity, inhibitory curve data point (EcThrRS_G463S [3]; Log10 Conc. 2.477, G463S): 91.563 and 88.959 and 88.970 and 89.661
ATP hydrolysis activity, inhibitory curve data point (EcThrRS_G463S [3]; Log10 Conc. 3.000, G463S): 84.928 and 77.254 and 80.440 and 82.267
ATP hydrolysis activity, inhibitory curve data point (EcThrRS_G463S [3]; Log10 Conc. 4.000, G463S): 53.455 and 58.497 and 57.343 and 60.957
ΔTm at 20 µM (EcThrRS_G463A [4]; [6]): 19.1 °C
ΔTm at 20 µM (EcThrRS_G463A [4]; source data sheet Fig.7c, ThrRS_G463A, read-out: ΔTm, single replicates): 19.1 °C
ΔTm at 20 µM (EcThrRS_G463S [5]; [6]): 17.4 °C
ΔTm at 20 µM (EcThrRS_G463S [5]; source data sheet Fig.7c, ThrRS_G463S, read-out: ΔTm, single replicates): 17.3 °C
